K(Dye2) = not defined here; K(tet) = not defined here; code O = not defined here; C17 = C17 chain
Tests used:
[1] = cited from earlier work; for Monera et al. Hydrophobicity at pH 7: normalized, phenylalanine 100, glycine 0
[2] = cited from earlier work
MAP kinase1/Erk1 = target: T1, MAP kinase1/Erk1 (Homo sapiens, UniProt P27361); assay: Real-time kinase assay with hydrophobic molecule and myelin basic protein micelle; assay type: biochemical; conditions: FIG. 3B
T1 construct: purchased Upstate USA, Inc
Experimental: (§1) The compositions described herein are useful in the detection of enzymes. Real-time kinase assays for PKCβII, MAP kinase1/Erk1, and MAP kinase2/Erk2 using the hydrophobic molecule, C16OOOK(Dye 2)EEIYGEF-amide and charge-balance molecule, myelin basic protein with 0 or 100 μM ATP, are shown in FIGS. 3A-C.
(§2) A reaction solution (10 μl) was prepared containing the hydrophobic molecule C16OOOK(Dye2)EEIYGEF-amide (10 μM), and 10 μM charge-balance molecule Myelin Basic Protein (Upstate cat. no: 13-104), in 20 mM Tris buffer, pH 7.6, MgCl2 (5 mM), DTT (5 mM) and either PKCβII (0.15 ng/μl, Upstate USA, Inc.), MAP kinase1/Erk1 (1.5 ng/μl, Upstate USA, Inc.), or MAP kinase2/Erk2 (1.5 ng/μl, Upstate USA, Inc.). The solution was pipetted into wells of a 384-well plate (10 μL per well), Corning 384-well, black, non-binding surface (NBS), microwell plates. ATP (0 or 500 μM) was added to initiate the kinase reaction. Fluorescence was read in real-time every 2 minutes for 2 hours, at ambient temperature, using, Molecular Devices (Sunnyvale, Calif.) Analyst GT, with excitation and emission set at 485 and 535 nm respectively.

PKCβII [3] = target: T2, PKCβII (Homo sapiens, UniProt P05771); assay: as above; assay type: biochemical; conditions: FIG. 3A
T2 construct: purchased Upstate USA, Inc
Experimental: as §1, §2

MAP kinase2/Erk2 = target: T3, MAP kinase2/Erk2 (Homo sapiens, UniProt P28482); assay: as above; assay type: biochemical; conditions: FIG. 3C
T3 construct: purchased Upstate USA, Inc
Experimental: as §1, §2

PKCβII [4] = target: T2, PKCβII; assay: Inhibition of PKCβII in real-time micelle kinase assay; assay type: biochemical; conditions: FIGS. 5A-B, IC50 only in figures
Experimental: A reaction solution (10 μl) was prepared containing the hydrophobic molecule C16OOOK(Dye2)EEIYGEF-amide (10 μM), and 10 μM charge-balance molecule Myelin Basic Protein (Upstate USA, Inc. cat. no: 13-104), in 20 mM Tris buffer, pH 7.6, MgCl2 (5 mM), DTT (5 mM), 10% Lipid Activator (Upstate USA, Inc), and PKCβII (0.15 ng/μl, Upstate USA, Inc.). The solution was pipetted into wells of a 384-well plate (10 μL per well), Corning 384-well, black, non-binding surface (NBS), microwell plates. […] ATP (10 μM) was added to initiate the kinase reaction. Fluorescence was read in real-time every 2 minutes for 2 hours, at ambient temperature, using, Molecular Devices (Sunnyvale, Calif.) Analyst GT, with excitation and emission set at 485 and 535 nm respectively.

[5] = Freeze fracture electron microscopy of micelles; assay type: physicochemical; conditions: 25 mM Tris pH 7.6; for micelle form seen in electron micrograph: FIGS. 1A-B
Description: Micelle formation can be detected in a variety of ways, including fluorescence titration of the molecules in detergent, and dynamic laser light scattering. Additionally, direct visual evidence of micelle formation, and micelle disruption by adding a charged group, can be obtained by freeze fracturing electron microscopy. For example, FIG. 1A is an electron micrograph of micelles comprising the hydrophobic molecule, C17OOOK(tet)RQGSFRA-amide. […] “Tet” is a fluorescent moiety provided by 2′,7′,4,7-tetachloro-5-carboxy fluorescein (2′,7-dichloro-5-carboxy-4,7-dichlorofluorescein). OOO represents optional O-spacers comprising (bis)ethylene glycol group(s). […] FIG. 1B is an electron micrograph of micelles comprising a phosphorylated hydrophobic molecule, C17OOOK(tet)RQGS(p)FRA-amide. […] Thus, the addition of two negative charges to the hydrophobic molecule, results in micelle disruption and deaggregation.
For freeze fracture electron microscopy, the hydrophobic molecule, C17OOO K(tet)RQGSFRA-amide phosphorylated hydrophobic molecule C17OOOK (tet)RQGS(p)FRA-amide were each dissolved in 25 mM Tris (pH 7.6), 5 mM MgCl and 5 mM DTT. The samples were frozen in liquid nitrogen-cooled propane. […] The fracturing process was carried out in a JEOL JED-9000 freeze-etching machine and the exposed fractured planes were shadowed with Pt for thirty seconds at an angle of 25-35 C and with carbon for 35 seconds (2 kV/60-70 mA, 1×10^−5 Torr). The replicas produced were cleaned with concentrated chloroform/methanol (1:1 by volume) at least five times. The cleaned replicas were examined with a JEOL 1000CX or Philips CM 10 electron microscope.

T2 sequence (P05771 1-673 isoform P05771-2): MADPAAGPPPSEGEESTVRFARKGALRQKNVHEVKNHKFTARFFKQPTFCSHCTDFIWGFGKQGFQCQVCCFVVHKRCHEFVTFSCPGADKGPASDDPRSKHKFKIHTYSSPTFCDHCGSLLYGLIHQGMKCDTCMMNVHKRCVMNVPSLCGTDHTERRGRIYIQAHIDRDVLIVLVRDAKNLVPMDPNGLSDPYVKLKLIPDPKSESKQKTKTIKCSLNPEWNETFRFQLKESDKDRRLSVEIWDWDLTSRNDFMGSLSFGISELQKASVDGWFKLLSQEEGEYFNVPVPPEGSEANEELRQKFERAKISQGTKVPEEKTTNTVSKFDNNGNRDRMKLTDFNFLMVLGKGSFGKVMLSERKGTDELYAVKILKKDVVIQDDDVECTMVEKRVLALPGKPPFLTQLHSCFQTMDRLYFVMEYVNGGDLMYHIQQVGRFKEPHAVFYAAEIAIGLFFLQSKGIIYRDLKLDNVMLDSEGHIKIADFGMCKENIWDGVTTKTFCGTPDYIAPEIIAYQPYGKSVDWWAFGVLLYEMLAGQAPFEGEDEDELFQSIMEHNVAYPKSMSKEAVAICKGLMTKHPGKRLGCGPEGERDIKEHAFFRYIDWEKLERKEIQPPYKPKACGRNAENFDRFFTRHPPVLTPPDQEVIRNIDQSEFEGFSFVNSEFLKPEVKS
T3 sequence (P28482 whole entry): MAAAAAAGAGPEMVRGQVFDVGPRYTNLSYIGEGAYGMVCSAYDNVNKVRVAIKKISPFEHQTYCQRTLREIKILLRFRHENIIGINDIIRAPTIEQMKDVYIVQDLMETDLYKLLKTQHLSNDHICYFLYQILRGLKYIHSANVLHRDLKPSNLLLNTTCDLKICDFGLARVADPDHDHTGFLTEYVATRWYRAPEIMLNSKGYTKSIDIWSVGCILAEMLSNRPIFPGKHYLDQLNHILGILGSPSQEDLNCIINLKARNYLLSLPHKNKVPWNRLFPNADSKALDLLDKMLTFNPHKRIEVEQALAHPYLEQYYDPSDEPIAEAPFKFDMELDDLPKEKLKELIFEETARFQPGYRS
T1 sequence (P27361 whole entry): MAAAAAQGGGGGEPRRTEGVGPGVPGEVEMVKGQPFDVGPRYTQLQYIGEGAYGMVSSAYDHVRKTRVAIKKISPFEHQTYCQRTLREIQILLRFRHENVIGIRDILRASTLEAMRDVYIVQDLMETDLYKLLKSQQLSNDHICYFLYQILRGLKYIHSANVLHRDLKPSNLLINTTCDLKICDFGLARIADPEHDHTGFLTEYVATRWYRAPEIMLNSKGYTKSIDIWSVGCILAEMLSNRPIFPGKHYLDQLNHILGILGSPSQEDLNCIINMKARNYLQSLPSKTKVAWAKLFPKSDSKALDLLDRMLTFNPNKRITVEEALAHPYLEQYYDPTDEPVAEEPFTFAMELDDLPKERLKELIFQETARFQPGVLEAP

N[C@@H](Cc1c[nH]cn1)C(=O)O [Histidine (H), Histidine]
Monera et al. Hydrophobicity at pH 7 [1]: 8

N[C@@H](Cc1ccccc1)C(=O)O [Phenylalanine (F), Phenylalanine]
Monera et al. Hydrophobicity at pH 7 [1]: 100

N[C@@H](Cc1ccc(O)cc1)C(=O)O [Tyrosine (Y), Tyrosine]
Monera et al. Hydrophobicity at pH 7 [1]: 63

N=C(N)NCCC[C@H](N)C(=O)O [Arginine (R), Arginine]
α-COOH pKa [2]: 2.2

C16OOOK(Dye2)EEIYGEF-amide ({C16-code O-code O-code O-K(Dye2)}-EEIYGEF-NH2; reading uncertain; also: printed as C16OOOK(Dye2)EEIYGEF-amide) [C16OOOK(Dye 2)EEIYGEF-amide, hydrophobic molecule: C16 carbon chain, O-spacers, lysine-linked 5-carboxy-2′,7′-dipyridyl-sulfonefluorescein, peptide EEIYGEF-amide]
increase in fluorescence over time on addition of enzyme (MAP kinase1/Erk1): greater than 4 fold | increase in fluorescence over time on addition of enzyme (PKCβII [3]): greater than 4 fold | increase in fluorescence over time on addition of enzyme (MAP kinase2/Erk2): greater than 4 fold

O=S(=O)(NCCNC/C=C/c1ccc(Br)cc1)c1cccc2cnccc12 [H98, H89]
effect of increasing concentrations of enzyme inhibitor on fluorescence (PKCβII [4]): decrease in fluorescence

CC(C)[C@H](N)C(=O)O [Valine (V), Valine]
Monera et al. Hydrophobicity at pH 7 [1]: 76

O=C(O)[C@@H]1CCCN1 [Proline (P), Proline]
Monera et al. Hydrophobicity ([1]; pH 2): −46 (pH 2) | α-COOH pKa [2]: 2.1

N[C@@H](Cc1c[nH]c2ccccc12)C(=O)O [Tryptophan (W), Tryptophan]
Monera et al. Hydrophobicity at pH 7 [1]: 97 | α-COOH pKa [2]: 2.4

N[C@@H](CO)C(=O)O [Serine (S), Serine]
Monera et al. Hydrophobicity at pH 7 [1]: −5 | Side chain pKa [2]: ~13 | α-NH3+ pKa [2]: 9.2

C[C@@H](O)[C@H](N)C(=O)O [Threonine (T), Threonine]
Side chain pKa [2]: ~13 | α-COOH pKa [2]: 2.6 | α-NH3+ pKa [2]: 10.4

C[C@H](N)C(=O)O [Alanine (A), Alanine]
Monera et al. Hydrophobicity at pH 7 [1]: 41 | α-COOH pKa [2]: 2.4

NC(=O)C[C@H](N)C(=O)O [Asparagine (N), Asparagine]
Monera et al. Hydrophobicity at pH 7 [1]: −28 | α-COOH pKa [2]: 2.0 | α-NH3+ pKa [2]: 8.8

C17OOOK(tet)RQGS(p)FRA-amide
micelle form seen in electron micrograph [5]: only form small spheres and small clusters of spheres

CSCC[C@H](N)C(=O)O [Methionine (M), Methionine]
Monera et al. Hydrophobicity at pH 7 [1]: 74 | α-COOH pKa [2]: 2.3 | α-NH3+ pKa [2]: 9.2

C17OOOK(tet)RQGSFRA-amide ({C17-code O-code O-code O-K(tet)}-RQGSFRA-NH2; reading uncertain; also: printed as C17OOOK(tet)RQGSFRA-amide) [hydrophobic molecule: C17 carbon chain, O-spacers, lysine-linked tet fluorescein dye, peptide RQGSFRA-amide]
micelle form seen in electron micrograph [5]: cylindrical or tubular micelles | diameter of cylindrical or tubular micelles ([5]; electron micrograph FIG. 1A): 20-60 nm | length of cylindrical or tubular micelles ([5]; electron micrograph FIG. 1A): 200-1000 nm

N[C@@H](CS)C(=O)O [Cysteine (C), Cysteine]
Monera et al. Hydrophobicity at pH 7 [1]: 49 | Side chain pKa [2]: about 8

NCCCC[C@H](N)C(=O)O [Lysine (K), Lysine]
Monera et al. Hydrophobicity at pH 7 [1]: −23 | α-NH3+ pKa [2]: 9.0

CC[C@H](C)[C@H](N)C(=O)O [Isoleucine (I), Isoleucine]
Monera et al. Hydrophobicity at pH 7 [1]: 99 | α-COOH pKa [2]: 2.4 | α-NH3+ pKa [2]: 9.7
